Results reported in ChEMBL document CHEMBL1201862, “PubChem BioAssay data set” (2004).
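Method: 48-hour compound exposure of cells in 96-well plates, five concentrations, linear interpolation of endpoints. GI50 = concentration required for 50% inhibition of growth.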 The source made the active and inactive calls. Cut-off read from the data, not from the text of the source: active = GI50 up to about 1.1 µM and inactive = higher.

How the values were obtained:
Assay in all cases: NCI anticancer screen, dose series, 48 h
[1] = test system: OVCAR-4
[2] = test system: 786-0
[3] = test system: OVCAR-8
[4] = test system: RXF 393
[5] = test system: HCC 2998
[6] = test system: NCI-H460
[7] = test system: UO-31
[8] = test system: LOX IMVI
[9] = test system: SF-539
[10] = test system: U-251
[11] = test system: CCRF-CEM
[12] = test system: IGROV-1
[13] = test system: Malme-3M
[14] = test system: SNB-75
[15] = test system: SW-620
[16] = test system: HL-60
[17] = test system: RPMI-8226

| SMILES | GI50 [1] | GI50 [2] | GI50 [3] | GI50 [4] | GI50 [5] | GI50 [6] | GI50 [7] | GI50 [8] | GI50 [9] | GI50 [10] | GI50 [11] | GI50 [12] | GI50 [13] | GI50 [14] | GI50 [15] | GI50 [16] | GI50 [17] |
| --- | --- | --- | --- | --- | --- | --- | --- | --- | --- | --- | --- | --- | --- | --- | --- | --- | --- |
| CNCC(=O)Nc1ccc2c(c1)C(=O)c1ccc(NC(=O)CNC)cc1C2=O | 1.91 µM (inactive) | 4.42 µM (inactive) | 2.69 µM (inactive) | 7.31 µM (inactive) | 4.72 µM (inactive) | 3.77 µM (inactive) | 11.8 µM (inactive) | 1.68 µM (inactive) | 3.1 µM (inactive) | 2.7 µM (inactive) | 2.74 µM (inactive) | 16.6 µM (inactive) | 3.27 µM (inactive) | 13.6 µM (inactive) | 2.56 µM (inactive) | – | – |
| C=CC1=C(C)c2cc3[nH]c(cc4nc(cc5[nH]c(cc1n2)c(C)c5CCC(=O)N(CC)CC)C(CCC(=O)N(CC)CC)=C4C)c(C)c3C=C | > 100 µM (inactive) | > 100 µM (inactive) | > 100 µM (inactive) | 75.9 µM (inactive) | > 100 µM (inactive) | > 100 µM (inactive) | > 100 µM (inactive) | > 100 µM (inactive) | > 100 µM (inactive) | > 100 µM (inactive) | > 100 µM (inactive) | > 100 µM (inactive) | > 100 µM (inactive) | 29.4 µM (inactive) | > 100 µM (inactive) | > 100 µM (inactive) | – |
| CSc1nc(NC2OC(COC(C)=O)C(OC(C)=O)C(OC(C)=O)C2OC(C)=O)c(/N=C/C=N/c2c(NC3OC(COC(C)=O)C(OC(C)=O)C(OC(C)=O)C3OC(C)=O)nc(SC)[nH]c2=O)c(=O)[nH]1 (centres undefined) | > 100 µM (inactive) | > 100 µM (inactive) | > 100 µM (inactive) | > 100 µM (inactive) | > 100 µM (inactive) | > 100 µM (inactive) | > 100 µM (inactive) | > 100 µM (inactive) | > 100 µM (inactive) | > 100 µM (inactive) | – | > 100 µM (inactive) | > 100 µM (inactive) | > 100 µM (inactive) | > 100 µM (inactive) | > 100 µM (inactive) | > 100 µM (inactive) |
| Cc1ccc(-c2cc(-c3ccco3)c(C#N)c(=O)n2C2OC(OC(=O)c3ccccc3)C(OC(=O)c3ccccc3)C2OC(=O)c2ccccc2)cc1 (centres undefined) | – | 81.3 µM (inactive) | > 100 µM (inactive) | 24.9 µM (inactive) | > 100 µM (inactive) | > 100 µM (inactive) | > 100 µM (inactive) | > 100 µM (inactive) | > 100 µM (inactive) | 0.925 µM (active) | > 100 µM (inactive) | 42.8 µM (inactive) | > 100 µM (inactive) | > 100 µM (inactive) | > 100 µM (inactive) | – | > 100 µM (inactive) |
| O=C1OCC(C(=O)c2cccc(O)c2)C1=O (centres undefined) | > 100 µM (inactive) | > 100 µM (inactive) | > 100 µM (inactive) | > 100 µM (inactive) | > 100 µM (inactive) | > 100 µM (inactive) | > 100 µM (inactive) | > 100 µM (inactive) | > 100 µM (inactive) | > 100 µM (inactive) | – | > 100 µM (inactive) | > 100 µM (inactive) | > 100 µM (inactive) | > 100 µM (inactive) | – | > 100 µM (inactive) |
| CCC1(N=[N+]=[N-])C(=O)c2ccccc2N(C)C1=O (centres undefined) | > 100 µM (inactive) | > 100 µM (inactive) | > 100 µM (inactive) | – | > 100 µM (inactive) | > 100 µM (inactive) | > 100 µM (inactive) | > 100 µM (inactive) | > 100 µM (inactive) | > 100 µM (inactive) | > 100 µM (inactive) | > 100 µM (inactive) | > 100 µM (inactive) | > 100 µM (inactive) | > 100 µM (inactive) | > 100 µM (inactive) | – |
| O=C1NC(=O)C(C(=O)C(=O)Nc2ccc(Cl)cc2Cl)C(=O)N1 | > 100 µM (inactive) | > 100 µM (inactive) | > 100 µM (inactive) | – | > 100 µM (inactive) | > 100 µM (inactive) | > 100 µM (inactive) | – | > 10 µM (inactive) | > 100 µM (inactive) | > 100 µM (inactive) | > 100 µM (inactive) | > 100 µM (inactive) | – | > 100 µM (inactive) | > 100 µM (inactive) | > 100 µM (inactive) |
| C#Cc1cccc(NC(=O)/C=C\C(=O)O)c1 | > 100 µM (inactive) | > 100 µM (inactive) | > 100 µM (inactive) | – | – | > 100 µM (inactive) | > 100 µM (inactive) | – | – | > 100 µM (inactive) | > 100 µM (inactive) | – | > 100 µM (inactive) | > 100 µM (inactive) | > 100 µM (inactive) | > 100 µM (inactive) | > 100 µM (inactive) |
| O=C(O)CNc1cc(-c2ccccc2)nc(NCC(=O)O)n1 | > 100 µM (inactive) | > 100 µM (inactive) | > 100 µM (inactive) | – | > 100 µM (inactive) | > 100 µM (inactive) | > 100 µM (inactive) | > 100 µM (inactive) | > 100 µM (inactive) | > 100 µM (inactive) | > 100 µM (inactive) | > 100 µM (inactive) | > 100 µM (inactive) | > 100 µM (inactive) | > 100 µM (inactive) | > 100 µM (inactive) | > 100 µM (inactive) |
